Results as given in PubChem BioAssay (NCI).
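1) Cells in 96-well plates. 2) Compound, 48 h, 5 concentrations. 3) Linear interpolation between surrounding doses. 4) Unreached endpoint = highest concentration. Abbreviation: GI50, concentration required for 50% inhibition of growth. TGI denotes the concentration required for complete inhibition of growth.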

How the values were obtained:
Experiment in all cases: inhibition of tumour cell growth, NCI panel, 48 h
[1] = system: SF-539 CNS
[2] = system: LOX IMVI melanoma
[3] = system: UACC-62 melanoma
[4] = system: HS 578T breast
[5] = system: BT-549 breast
[6] = system: HCC-2998 colon
[7] = system: MOLT-4 leukemia
[8] = system: MCF7 breast
[9] = system: T-47D breast
[10] = system: NCI-H522 lung
[11] = system: MDA-MB-435
[12] = system: HOP-92 NSCLC
[13] = system: M14 melanoma
[14] = system: DU-145 prostate
[15] = system: SK-MEL-2 melanoma
[16] = system: MALME-3M melanoma
[17] = system: MDA-MB-231 breast
[18] = system: HL-60(TB) leukemia
[19] = system: HOP-62 NSCLC
[20] = system: ACHN renal
[21] = system: A498 renal
[22] = system: UO-31 renal
[23] = system: SK-OV-3 ovarian
[24] = system: RXF 393 renal
[25] = system: SF-268 CNS
[26] = system: OVCAR-5 ovarian
[27] = system: RPMI-8226 leukemia
[28] = system: NCI-H23 lung
[29] = system: SNB-75 CNS
[30] = system: 786-0 renal
[31] = system: U251 CNS
[32] = system: SN12C renal
[33] = system: CAKI-1 renal
[34] = system: OVCAR-8 ovarian
[35] = system: EKVX NSCLC
[36] = system: SK-MEL-28 melanoma
[37] = system: KM12 colon
[38] = system: HCT-116 colon
[39] = system: NCI/ADR-RES ovarian
[40] = system: UACC-257 melanoma
[41] = system: HCT-15 colon
[42] = system: SK-MEL-5 melanoma
[43] = system: OVCAR-3 ovarian
[44] = system: NCI-H226 lung
[45] = system: PC-3 prostate
[46] = system: HT29 colon
[47] = system: A549 NSCLC
[48] = system: TK-10 renal
[49] = system: SR leukemia
[50] = system: SF-295 CNS
[51] = system: K-562 leukemia
[52] = system: IGROV1 ovarian
[53] = system: CCRF-CEM leukemia
[54] = system: SNB-19 CNS
[55] = system: SW-620 colon
[56] = system: COLO 205 colon
[57] = system: NCI-H460 lung

Cn1cc(-c2nc3c(F)cc4[nH]ncc4c3c3c2CCCC3)c(C(F)(F)F)n1
GI50 [1]: 7.55 µM
TGI [1]: 22.8 µM
GI50 [2]: 7.8 µM
TGI [2]: 25 µM
GI50 [3]: 5.54 µM
TGI [3]: 28.3 µM
GI50 [4]: 4.59 µM
TGI [4]: 27.2 µM
GI50 [5]: 2.62 µM
TGI [5]: 15.4 µM
GI50 [6]: 16.4 µM
TGI [6]: 49.3 µM
GI50 [7]: 4.2 µM
TGI [7]: 40.4 µM
GI50 [8]: 5.38 µM
TGI [8]: 45.4 µM
GI50 [9]: 9.51 µM
TGI [9]: 76.9 µM
GI50 [10]: 3.45 µM
TGI [10]: 19.6 µM
GI50 [11]: 5.36 µM
TGI [11]: > 100 µM
GI50 [12]: 19.6 µM
TGI [12]: > 100 µM
GI50 [13]: 8.54 µM
TGI [13]: 44.2 µM
GI50 [14]: 10.9 µM
TGI [14]: 77.7 µM
GI50 [15]: 13 µM
TGI [15]: 30.5 µM
GI50 [16]: 8.87 µM
TGI [16]: 34.2 µM
GI50 [17]: 13.1 µM
TGI [17]: > 100 µM
GI50 [18]: 5.5 µM
TGI [18]: 28.2 µM
GI50 [19]: 6.22 µM
TGI [19]: 44 µM
GI50 [20]: 5.05 µM
TGI [20]: > 100 µM
GI50 [21]: 1.7 µM
TGI [21]: 4.88 µM
GI50 [22]: 4.26 µM
TGI [22]: 19.5 µM
GI50 [23]: 6.85 µM
TGI [23]: 38.5 µM
GI50 [24]: 2.67 µM
TGI [24]: 12.2 µM
GI50 [25]: 12 µM
TGI [25]: 55.3 µM
GI50 [26]: 19.2 µM
TGI [26]: 86.6 µM
GI50 [27]: 11.5 µM
TGI [27]: > 100 µM
GI50 [28]: 8.73 µM
TGI [28]: > 100 µM
GI50 [29]: 3.69 µM
TGI [29]: 16.9 µM
GI50 [30]: 10.7 µM
TGI [30]: 27.7 µM
GI50 [31]: 18.2 µM
TGI [31]: 56.9 µM
GI50 [32]: 8.25 µM
TGI [32]: 81.8 µM
GI50 [33]: 3.33 µM
TGI [33]: > 100 µM
GI50 [34]: 15.3 µM
TGI [34]: > 100 µM
GI50 [35]: 9.47 µM
TGI [35]: 36.6 µM
GI50 [36]: 12.8 µM
TGI [36]: 74.8 µM
GI50 [37]: 2.85 µM
TGI [37]: > 100 µM
GI50 [38]: 4.3 µM
TGI [38]: 22.1 µM
GI50 [39]: 15.8 µM
TGI [39]: > 100 µM
GI50 [40]: 25.9 µM
TGI [40]: > 100 µM
GI50 [41]: 14.2 µM
TGI [41]: > 100 µM
GI50 [42]: 9.12 µM
TGI [42]: 22.9 µM
GI50 [43]: 23.2 µM
TGI [43]: 75.8 µM
GI50 [44]: 22.7 µM
TGI [44]: 67.2 µM
GI50 [45]: 14.6 µM
TGI [45]: > 100 µM
GI50 [46]: 9.05 µM
TGI [46]: > 100 µM
GI50 [47]: 5.7 µM
TGI [47]: 59.4 µM
GI50 [48]: 10.1 µM
TGI [48]: 75 µM
GI50 [49]: 5.25 µM
TGI [49]: > 100 µM
GI50 [50]: 9.57 µM
TGI [50]: 69.8 µM
GI50 [51]: 8.25 µM
TGI [51]: > 100 µM
GI50 [52]: 4.15 µM
TGI [52]: 28.7 µM
GI50 [53]: 4.66 µM
TGI [53]: > 100 µM
GI50 [54]: 26.8 µM
TGI [54]: > 100 µM
GI50 [55]: 11.3 µM
TGI [55]: 48.7 µM
GI50 [56]: 19.6 µM
TGI [56]: 57.1 µM
GI50 [57]: 10.4 µM
TGI [57]: 33.9 µM
